Laboratory results from US11970469B2 (Oxford University Innovation Limited, priority 2018, dated 2024).

Biological target: GST-human KRas166 (G12V) GPPNHP (Homo sapiens, UniProt P01116, G12V)
Assay: KRas small-molecule screening by SPR (BIACORE T200)
Assay type: binding
Parameters: KRAS166 (G12V) was immobilized between 10,000 to 15,000 Response Units; made in house; host or cells: E. coli C41(DE3)
Details: compounds at final concentration of 100 uM; immobilised KRAS166 (G12V) GPPNHP; no unit printed (method speaks of response units)
Procedure: For SPR assays pGEX-KRAS(G12V) plasmid was transformed into E. coli C41(DE3). Bacterial cells were cultured at 37° C. to an OD600 of 0.6 and induced with IPTG (final 0.1 mM) at 18° C. over night. The GST fusion proteins were extracted from bacteria pellets after cell disruption in 140 mM NaCl, 2.7 mM KCl, 10 mM NaH2PO4, 1.8 mM KH2PO4, 1 mM EDTA, 2 mM MgCl2 pH 7.4 and purified by glutathione-sepharose column chromatography (GE Healthcare), eluting with 50 mM Tris-HCl pH8.0, 10 mM reduced glutathione, 1 mM DTT, 2 mM MgCl2. The eluted proteins were dialysed against 50 mM Tris-HCl pH8.0, 1 mM DTT, 2 mM MgCl2 and concentrated to 10 mg/ml using a Biomax-30 ULTRAFREE-15 centrifugal filter device (Millipore). Purified KRAS protein was loaded with GPPNHP as described elsewhere (Pacold et al., 2000). Loaded protein was then purified by gel filtration on a HiLoad Superdex-75 HR column (GE Healthcare) in 1×PBS pH7.4, 5 mM MgCl2 and concentrated for storage. Protocol for KRas small-molecule screening and affinity measurements by SPR
To a previously immobilized CM5 chip (GE Healthcare BR-1005-30) with anti GST antibody via amine coupling method, GST in channel 1 and GST-human KRas166 (G12V) GPPNHP in channel 2 were immobilised. GST was immobilised between 2,000 and 5,000 Response units. KRAS166 (G12V) was immobilized between 10,000 to 15,000 Response Units. […]

SPR: 33
Structure (SMILES): COc1cccc(-c2ccc(Nc3ccc(C(=O)NCC4CCN(C(=O)OC(C)(C)C)CC4)cc3)cc2)c1 [Example 19]
